Source: US20060275229A1, “Skin care active complex and methods of using same” (priority 2005, published 2006)
One block for each compound: values may come before it.

Columns and labels:
[1] = Inhibition of UV-induced lipid peroxidation of phospholipid liposomes (antioxidant test, malonaldehyde); format: biochemical; conditions: lecithin liposomes, UV light for 4 hours
Protocol: Unsaturated fatty acids are present in the phospholipids of cell membranes. Their oxidation compromises membrane integrity and also leads to the generation of breakdown products that are damaging to other important cellular components such as proteins and nucleic acids. Since the skin is exposed to large doses of UV light from the sun, UV-induced peroxidation is a significant route of oxidant damage. […] The left column of Table 2 lists the compounds that were tested, while the right column lists each corresponding compound the effective concentration that inhibits oxidation by 50%. The assay was performed by irradiating a suspension of lecithin liposomes with UV light for 4 hours in the absence of or in the presence of the different compounds listed in the table. […] The rate of lipid oxidation was calculated from the increase in malonaldehyde content.

[2] = target: T1, human neutrophil elastase (Homo sapiens, UniProt P08246); assay: Neutrophil elastase inhibition, chromogenic substrate assay; format: biochemical
T1 construct: purchased Athens Research and Technology, GA
T1 sequence (P08246 30-267): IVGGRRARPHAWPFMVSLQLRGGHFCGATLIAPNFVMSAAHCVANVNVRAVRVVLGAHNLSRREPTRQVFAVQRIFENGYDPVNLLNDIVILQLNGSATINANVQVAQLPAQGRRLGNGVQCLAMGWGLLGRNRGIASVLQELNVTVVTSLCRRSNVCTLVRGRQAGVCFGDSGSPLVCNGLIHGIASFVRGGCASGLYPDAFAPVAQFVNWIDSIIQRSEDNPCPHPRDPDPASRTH
From the text: In combination, these three enzymes are capable of extensively degrading all of the protein components of the extracellular matrix (ECM) including collagens I and III (the major collagen types in the skin), elastin and the various glycoprotein components (e.g., fibronectin). Elevated expression of these proteases is triggered by inflammatory stimuli such as UV light, and their activity results in ECM damage that is a major component of skin aging.
Ursolic acid is a powerful inhibitor of elastase activity. The inhibition activity of ursolic acid was tested by incubating it with a human neutrophil elastase sample (obtained from Athens Research and Technology, GA) for 10 minutes with a chromogenic substrate, given below. The change in optical density of the substrate at 405 nm was recorded one reading per minute at room temperature reaction mixtures in a 96-well plate. The reaction mixture contains 300 µg/ml methoxysuccinyl-Ala-Ala-Pro-Val-pNA (chromogenic substrate); […] human neutrophil elastase at concentrations in the range 0.55%-3.3%; 70 mM Tris-HCl (pH 8); and 200 mM NaCl.
The % inhibition is calculated relative to the no-sample control.

EC50 (concentration that inhibits oxidation by 50%) [1]: 0.0003 % w/w
Compound: O=C(O[C@@H]1Cc2c(O)cc(O)cc2O[C@@H]1c1cc(O)c(O)c(O)c1)c1cc(O)c(O)c(O)c1 [Epigallocatechin gallate (EGCG), Epigallocatechin gallate]

Elastase Inhibition (%) ([2]; concentration 0.0004 %): 26%
Elastase Inhibition (%) ([2]; concentration 0.0008 %): 44%
Elastase Inhibition (%) ([2]; concentration 0.0012 %): 58%
Elastase Inhibition (%) ([2]; concentration 0.002 %): 72%
Elastase Inhibition (%) ([2]; concentration 0.004 %): 81%
Elastase Inhibition (%) ([2]; concentration 0.006 %): 84%
Elastase Inhibition (%) ([2]; concentration 0.01 %): 86%
IC50 value for elastase inhibition ([2]; human neutrophil elastase, chromogenic substrate, Example 4): about 0.0008%
Compound: C[C@H]1[C@H](C)CC[C@]2(C(=O)O)CC[C@]3(C)C(=CC[C@@H]4[C@@]5(C)CC[C@H](O)C(C)(C)[C@@H]5CC[C@]43C)[C@H]12 [Ursolic Acid, Ursolic acid]

EC50 (concentration that inhibits oxidation by 50%) [1]: 0.002 % w/w
Compound: O=C1O[C@H]([C@@H](O)CO)C(O)=C1O [Vitamin C (Ascorbic Acid), Ascorbic Acid]

EC50 (concentration that inhibits oxidation by 50%) [1]: 0.022 % w/w
Compound: CC(=O)Oc1c(C)c(C)c2c(c1C)CCC(C)(CCC[C@H](C)CCC[C@H](C)CCCC(C)C)O2 (some centres unmarked) [Vitamin E acetate]
